{"source": "patent US20190125714A1", "about": "“CALPAIN INHIBITORS IN THE PREVENTION AND/OR TREATMENT OF VENTRICULAR REMODELLING” (FUNDAClÓ HOSPITAL UNIVERSITARI VALL D'HEBRON - INSTITUT DE …, priority 2016, published 2019)", "key": {"[1]": {"settings": "intravenously before initiating ischemia and during a reperfusion of 6 hours; cited from earlier work"}, "[2]": {"settings": "administered at the start (onset) of reperfusion; cited from earlier work"}, "[3]": {"test_system": "Sprague-Dawley rats", "assay": "Inflammatory cell infiltration (CD68 immunohistochemistry) in hearts reperfused for 3 days", "assay_type": "in vivo, rat", "settings": "3 days of reperfusion", "method": "Sprague-Dawley rats (250-300 g) were premedicated with atropine (0.05 mg/kg ip), anaesthetized with ketamine (75 mg/kg ip) and xylazine (10 mg/kg ip), and mechanically ventilated (Inspira ASV, Harvard Apparatus). Anaesthesia was maintained with 1-2% isoflurane and body temperature controlled with a heating pad to 36-37° C. The heart was exposed through the fourth intercostal space and the left anterior descending coronary artery (LAD) ligated using 6/0 silk suture (Ethicon Endo-surgery, OH, USA), 1 mm distal to left atrial appendage. After occlusion for 30 min, the suture was loosened to start reperfusion and buprenorphine (0.05 mg/kg per 6 h, subcutaneously) was given for 48 h. Mice with lack of ST-elevation during ischemia or lack of ST-recovery at reperfusion were excluded from further evaluation.\nMacrophage infiltration in the non-infarcted myocardium was analyzed by immunohistochemistry in hearts reperfused for 3 days (n=4 per group).\nMyocardial sections were exposed to H2O2/methanol, levamisol (DakoCytomation) and avidin/biotin blocking (Vector Laboratories) to neutralize endogenous peroxidase, phosphatase and biotin, respectively. Sections were probed with CD68 (AbD Serotec) for monocytes/macrophages, incubated with a biotinylated secondary antibody (1:200, ABC Peroxidase standard stainig kit, Thermo Scientific) in 2% normal blocking serum and visualized using 3, 3′-diaminobenzidine (DAB, Sigma). Six random photomicrographs from the infarct area and six from the non-infarcted area for each heart (n=6 per group) were taken at 200× magnification."}, "[4]": {"test_system": "Sprague-Dawley rats", "assay": "Myocardial hypertrophy and fibrosis induced by isoproterenol", "assay_type": "in vivo, rat", "settings": "7 days", "method": "Chronic administration of isoproterenol is the most common small animal model in the study of myocardial remodeling. In order to study the effect of calpain inhibition in AVR of a different cause than myocardial infarction, myocardial hypertrophy and fibrosis induced by isoproterenol.\nThe calpain inhibitor SNJ-1945 was co-administered orally once a day to male Sprague-Dawley rats that received 5 mg/Kg/day isoproterenol (ISO) […] for 1 week. Assayed groups were as follows:\nIsoproterenol group (ISO): administration of isoproterenol as a single daily subcutaneous injection for 7 consecutive days.\nSNJ-1945 treated group (SNJ+ISO): co-administration of SNJ-1945 (orally) and isoproterenol (subcutaneous) for 7 consecutive days.\nHearts were obtained and compared with vehicle-treated and ISO treated rats not receiving the calpain inhibitor.\nEchocardiography was performed using a Vivid portable ultrasound system with a i12L-RS 12 MHz transducer (GE Healthcare) as described earlier (Poncelas, Inserte et al. 2015, “Obesity induced by high fat diet attenuates postinfarct myocardial remodeling and dysfunction in adult B6D2F1 mice”, Journal of Molecular and Cellular Cardiology-2015, vol. no. 84, pp.: 154-161).\nFor the PCR, total RNA was extracted from ischemic and non-ischemic area of heart samples of the three assayed groups using TRIsure™ reagent (BIOLINE, UK) following the manufacturer's protocol. Quantitative RT-PCR was performed using Taqman universal PCR master mix (Applied Biosystems, USA). The amplification program consisted of 50° C. for 2 minutes, 95° C. for 10 minutes and 40 cycles of 95° C. for 15 sec and 60° C. for 1 minutes and was performed in a 7900HT Fast Real-Time PCR System (Applied Biosystems, USA). Primers used for ANP, BNP, collagen I, Myh6, Myh7, and […] were purchased from Thermofisher and were those in the following Gene Expression Assays (Rn00561661_m1, Rn04219558_g1, Rn01463848_m1, Rn00691721_g1, Rn01488777_g1, and Rn00572010_m1, respectively, reference to assays retrievable from Thermofisher catalogue at Mar. 1, 2017; https://www.thermofisher.com/order/genome-databaseldetails/gene-expression/)."}, "[5]": {"test_system": "calpain", "assay": "Isolated rat hearts subjected to ischemia/reperfusion, calpain-specific α-fodrin breakdown products", "settings": "perfusion of isolated rat hearts, data not shown"}, "[6]": {"test_system": "calpain", "assay": "Proteolysis of α-fodrin after oral gavage, 60 minutes of reperfusion", "assay_type": "in vivo, rat", "settings": "120 mg/kg orally (gavage); after 60 minutes of reperfusion"}, "[7]": {"target": "T1, matrix metalloproteinase-2 (MMP-2) (Rattus norvegicus, UniProt P33436)", "T1 construct": "myocardial preparations obtained from rats reperfused for 21 days (control group); from tissue; host or cells: rat myocardium (extracts after 21 days of reperfusion)", "T1 sequence (P33436 110-662)": "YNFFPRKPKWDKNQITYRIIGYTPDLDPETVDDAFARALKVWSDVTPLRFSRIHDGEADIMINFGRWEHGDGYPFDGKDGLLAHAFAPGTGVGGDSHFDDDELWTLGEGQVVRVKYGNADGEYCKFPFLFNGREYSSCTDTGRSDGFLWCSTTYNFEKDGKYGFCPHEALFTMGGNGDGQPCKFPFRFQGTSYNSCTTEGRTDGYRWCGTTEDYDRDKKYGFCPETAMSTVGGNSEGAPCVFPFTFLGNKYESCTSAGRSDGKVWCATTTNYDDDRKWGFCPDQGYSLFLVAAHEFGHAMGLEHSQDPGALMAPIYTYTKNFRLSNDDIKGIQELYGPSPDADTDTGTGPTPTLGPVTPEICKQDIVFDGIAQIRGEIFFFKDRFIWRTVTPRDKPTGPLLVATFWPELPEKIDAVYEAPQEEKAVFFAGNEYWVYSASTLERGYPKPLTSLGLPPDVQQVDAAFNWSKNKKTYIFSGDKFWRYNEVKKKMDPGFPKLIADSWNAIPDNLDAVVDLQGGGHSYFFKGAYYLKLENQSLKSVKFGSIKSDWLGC", "assay": "MMP-2 gelatinolytic activity by gelatin zymography of myocardial extracts", "assay_type": "biochemical", "settings": "5, 10 and 50 μM, incubated overnight at 37° C.", "method": "Activity of MMP-2 was evaluated by gelatin zymography. Briefly, myocardial preparations obtained from rats reperfused for 21 days (control group) were run on a 10% polyacrylamide gel copolymerized with 1.5 mg/ml gelatin. After washing with 2.5% Triton X-100, gels were cut into strips and incubated separately, overnight, in zymography buffer with SNJ-1945 at the concentrations of 5, 10 and 50 μM, DMSO as a vehicle control or the selective MMP inhibitor ONO-4817 (N-[(1 S,3S)-1-[(Ethoxymethoxy)methyl]-4-(hydroxyamino)-3-methyl-4-oxobutyl]-4-phenoxybenzamide) (50 μM, Tocris). It was further examined MMP-2 activity (as % of 0 μM) in samples prepared from animals receiving SNJ-1945 by oral gavage and reperfused for 21 days (Chronic group). Gels were stained in 0.25% Coomassie Brilliant blue G, 40% methanol, and gelatinolytic activities quantitated after destaining."}, "[8]": {"test_system": "Sprague-Dawley rats", "settings": "for Attenuation of scar area (LV area stained with picrosirius red): 21 days of reperfusion"}, "[9]": {"settings": "added to the cardioplegic solution and during 60 min of reperfusion; cited from earlier work"}, "[10]": {"settings": "SNJ-1945 orally once a day with isoproterenol 5 mg/Kg/day"}, "[11]": {"settings": "oral co-administration with ISO"}}, "note": "Where two headings read alike, the source gives them in different places.", "data": [{"molecule": "CCN(CC)Cc1ccc(/C=C/c2ccccc2C(=O)NC(Cc2ccccc2)C(=O)C(N)=O)cc1", "note": "(centres unmarked) [A-705253]", "values": [{"measurement": "Hemodynamic and contractile function", "setting": "[1]", "value": "improved"}, {"measurement": "Infarct size", "setting": "[1]", "value": "reduced"}, {"measurement": "Cardioprotective effect", "setting": "[2]", "value": "cardioprotective effect"}]}, {"molecule": "COCCOCCOC(=O)N[C@@H](CC(C)C)C(=O)N[C@@H](Cc1ccccc1)C(=O)C(=O)NC1CC1", "note": "[SNJ-1945, ((1S)-1-((((1S)-1-benzyl-2,3-dioxo-3-(cyclopropylamino)-propyl)amino)carbonyl)-3-methylbutyl)carbamic acid 5-methoxy-3-oxapentyl ester]", "values": [{"measurement": "Infiltration of monocytes/macrophages: acute and chronic treatments combined", "setting": "[3]; Ac+Chr group, P<0.001", "value": "no significant additive effect"}, {"measurement": "Infiltration of monocytes/macrophages (CD68+) in the ischemic area", "setting": "[3]; Acute group, P=0.002", "value": "attenuate"}, {"measurement": "Infiltration of monocytes/macrophages (CD68+) in the non-ischemic area", "setting": "[3]; Acute group, P=0.046", "value": "attenuate"}, {"measurement": "Infiltration of monocytes/macrophages (CD68+) in the non-ischemic area", "setting": "[3]; Chronic group, P=0.001", "value": "attenuate"}, {"measurement": "Infiltration of monocytes/macrophages (CD68+) in the ischemic area", "setting": "[3]; Chronic group, P=0.028", "value": "attenuate"}, {"measurement": "Increase in heart weight induced by isoproterenol", "setting": "[4]; [10]", "value": "reduces the increase"}, {"measurement": "Increase in interventricular wall (IVSWT) thickness induced by isoproterenol, echocardiography", "setting": "[4]; [10]", "value": "reduces the increase"}, {"measurement": "Increase in posterior wall (PWT) thickness induced by isoproterenol, echocardiography", "setting": "[4]; [10]", "value": "reduces the increase"}, {"measurement": "ANP mRNA levels (PCR)", "setting": "[4]; [11]", "value": "reduced"}, {"measurement": "BNP mRNA levels (PCR)", "setting": "[4]; [11]", "value": "reduced"}, {"measurement": "Calpain activation", "setting": "[4]; [11]", "value": "attenuated"}, {"measurement": "Cardiomyocyte crossectional area", "setting": "[4]; [11]", "value": "reduced"}, {"measurement": "Expression of TGFβ induced by ISO (PCR)", "setting": "[4]; [11]", "value": "significantly reduced"}, {"measurement": "Expression of collagen I induced by ISO (PCR)", "setting": "[4]; [11]", "value": "significantly reduced"}, {"measurement": "Intraventricular collagen deposition induced by ISO", "setting": "[4]; [11]", "value": "significantly reduced"}, {"measurement": "β-MHC/α-MHC ratio (PCR)", "setting": "[4]; [11]", "value": "reduced"}, {"measurement": "Calpain-specific α-fodrin breakdown products (calpain inhibition)", "setting": "[5]", "value": "dose-dependent reduction"}, {"measurement": "Proteolisis of α-fodrin", "setting": "[6]", "value": "significantly reduced"}, {"measurement": "MMP-2 activity (gelatinolytic)", "setting": "[7]", "value": "does not inhibit"}, {"measurement": "LV dilation and dysfunction (echocardiography: LVEDD, LVESD, EF)", "setting": "[8]; Ac+Chr group: acute ip plus oral 14 days, measured at 1 week of reperfusion vs control", "value": "significantly attenuated"}, {"measurement": "Attenuation of scar area (LV area stained with picrosirius red)", "setting": "[8]; Ac+Chr group, P=0.003", "value": 33.7, "unit": "%"}, {"measurement": "Levels of α-SMA (marker of fibroblast activation, western-blot)", "setting": "[8]; Ac+Chr group, P=0.009", "value": "reduced"}, {"measurement": "Interstitial fibrosis, acute and chronic phase combined", "setting": "[8]; Ac+Chr group, P=0.016", "value": "No further reduction"}, {"measurement": "β-MHC protein levels (western-blot, relative to GAPDH)", "setting": "[8]; Ac+Chr group, P=0.019", "value": "attenuated"}, {"measurement": "Cardiomyocyte hypertrophy (cross-sectional area, non-ischemic myocardium)", "setting": "[8]; Ac+Chr group, P=0.021", "value": "significantly reduced"}, {"measurement": "LV dilatation, ejection fraction and scar area: combination vs individual treatments", "setting": "[8]; Ac+Chr vs acute or chronic alone", "value": "did not result in a statistically significant improvement"}, {"measurement": "Hypertrophy markers: additive effect when both treatments were combined", "setting": "[8]; Ac+Chr vs single treatments", "value": "No significant additive effect"}, {"measurement": "Cardiomyocyte hypertrophy (cross-sectional area, non-ischemic myocardium)", "setting": "[8]; Acute group", "value": "not acute"}, {"measurement": "β-MHC protein levels (western-blot, relative to GAPDH)", "setting": "[8]; Acute group", "value": "attenuated only in groups treated chronically"}, {"measurement": "Attenuation of scar area (LV area stained with picrosirius red)", "setting": "[8]; Acute group, 120 mg/kg ip at reperfusion, P=0.002", "value": 29.1, "unit": "%"}, {"measurement": "LV dilation and dysfunction (echocardiography: LVEDD, LVESD, EF)", "setting": "[8]; Acute group: 120 mg/kg intraperitoneally 5 min before reperfusion, measured at 1 week of reperfusion vs control", "value": "significantly attenuated"}, {"measurement": "Interstitial collagen deposition in the non-infarcted area", "setting": "[8]; Acute group, P=0.109", "value": "not acute treatment"}, {"measurement": "Attenuation of scar area (LV area stained with picrosirius red)", "setting": "[8]; Chronic group, 120 mg/kg oral 14 days from 24 h of reperfusion, P=0.036", "value": 22.7, "unit": "%"}, {"measurement": "LV dilation and dysfunction (echocardiography: LVEDD, LVESD, EF)", "setting": "[8]; Chronic group: 120 mg/kg orally over 14 days starting after 24 h of reperfusion, at 21 days of reperfusion vs control", "value": "significantly attenuated"}, {"measurement": "Levels of α-SMA (marker of fibroblast activation, western-blot)", "setting": "[8]; Chronic group, P=0.012", "value": "reduced"}, {"measurement": "Interstitial collagen deposition in the non-infarcted area", "setting": "[8]; Chronic group, P=0.029", "value": "reduced"}, {"measurement": "β-MHC protein levels (western-blot, relative to GAPDH)", "setting": "[8]; Chronic group, P=0.036", "value": "attenuated"}, {"measurement": "Cardiomyocyte hypertrophy (cross-sectional area, non-ischemic myocardium)", "setting": "[8]; Chronic group, P=0.041", "value": "significantly reduced"}, {"measurement": "Echocardiographic parameters, acute vs chronic treatment", "setting": "[8]; at the end of the experiment (21 days)", "value": "No significant differences"}, {"measurement": "Survival rate between groups", "setting": "[8]; control, acute, chronic, Ac+Chr, overall mortality rate 12.5%", "value": "no differences"}, {"measurement": "Left ventricular dysfunction after cardioplegic arrest", "setting": "[9]", "value": "prevents left ventricular dysfunction"}]}]}
